Experimental data from patent US12319700B2, “Monohydrate potassium salt of a thienopyridone derivative and its preparation process” (POXEL, priority 2018, dated 2025).

How the values were obtained:
[1] = tested on: diet-induced obesity non-alcoholic steatohepatitis (DIO-NASH) mouse model; assay: Diet-induced obesity NASH (DIO-NASH) mouse model: effects on liver and adipose tissue metabolism; type: in vivo; conditions: 8 weeks; for change of liver weight compared to ctrl group / decrease in hepatic stellate cell activation (aSMA positive staining) / decrease in plasma free fatty acid level / increase of PGCl-α protein expression in AT / reduction of fat pad mass / reduction of liver TG content / hormone-sensitive lipase P-HSLser565 / down-regulation of fibrotic gene expression (type I collagen): p<0.01; for hormone-sensitive lipase P-HSLser563 / hormone-sensitive lipase P-HSLser565: adipose tissue; for down-regulation of fibrotic gene expression (type I collagen): liver
Description: (§1) • The effects of the monohydrate potassium salt of formula (I) (or “Compound (I)”) on liver and adipose tissue (AT) metabolism in a diet-induced obesity non-alcoholic steatohepatitis (DIO-NASH) mouse model are reported here.
(§2) After 41 weeks, only DIO-NASH mice with biopsy-confirmed steatosis (score ≥2) and fibrosis (stage ≥1) were included and received orally (n=12) vehicle (ctrl), compound (I) 35 or 75 mg/kg twice daily for 8 weeks.

[2] = tested on: AMPK; assay: AMPK activity (P-AMPK/AMPK) in liver and visceral adipose tissue of DIO-NASH mice; type: in vivo, mouse; conditions: 8 weeks; for increase of AMPK activity in the liver (P-AMPK/AMPK): p<0.05
Description: as §1, §2

[3] = tested on: ob/ob mice; assay: Dyslipidemia in male obese diabetic dyslipidemic ob/ob mice, 5 weeks of treatment; type: in vivo, mouse
Description: (§3) Effects of Compound (I) in male obese diabetic dyslipidemic ob/ob mice after 5 weeks of treatment.
(§4) Compound (I) was administered at 25, 50 and 100 mg/kg twice a day by oral route in carboxy methylcellulose 0.5%/Tween 80 (98/2) (n=10). A group of ob/ob mice was treated with carboxy methylcellulose 0.5%/Tween 80 (98/2) as a control group.

[4] = tested on: ob/ob mice; assay: Body weight in male obese diabetic dyslipidemic ob/ob mice, 5 weeks of treatment; type: in vivo, mouse
Description: as §3, §4

[5] = tested on: Spontaneous Hypertensive Rat (SHR); assay: Arterial pressure by telemetry in conscious unrestrained Spontaneous Hypertensive Rat (SHR); type: in vivo; conditions: 150 mg/kg bid for 5 days, over 24 h on the 5th day
Description: The effects of Compound (I) on arterial pressure was measured in conscious unrestrained well-known rat model of hypertension, the Spontaneous Hypertensive Rat (SHR), using telemetry. SHR aged of 21-22 weeks present a higher arterial pressure compared to healthy Wistar rats: systolic arterial pressure was 200 mmHg vs 120 mmHg in Wistar rats.
Four male SHR were submitted to surgery to implant a blood pressure catheter into the abdominal aorta. The telemetry transmitter was attached to the peritoneum. Ten days after recovery, the same animal received vehicle or Compound (I) 150 mg/kg bid administered for 5 days, 5 weeks apart. Systolic, diastolic and mean arterial pressures were recorded during 24 h, the 5th day of treatment.

[6] = 50 mg/kg twice a day oral, p<0.001
[7] = 100 mg/kg twice a day oral, p<0.001

Compound: O=c1[nH]c2sc(Cl)c(-c3ccc4c(c3O)CCCC4)c2c([O-])c1-c1ccccc1.[K+] [Compound (I), monohydrate potassium salt of 2-chloro-4-hydroxy-3-(5-hydroxytetralin-6-yl)-5-phenyl-7H-thieno[2,3-b]pyridin-6-one]
- reduction of NAFLD Activity Score (NAS) ([1]; 35 mg/kg orally twice daily, from 6.6, p<0.01): −32%
- change of liver weight compared to ctrl group ([1]; 35 mg/kg orally twice daily): −23%
- decrease in hepatic stellate cell activation (aSMA positive staining) ([1]; 35 mg/kg orally twice daily): −34%
- decrease in plasma free fatty acid level ([1]; 35 mg/kg orally twice daily): −37%
- increase of PGCl-α protein expression in AT ([1]; 35 mg/kg orally twice daily): +321%
- reduction of fat pad mass ([1]; 35 mg/kg orally twice daily): −25%
- reduction of liver TG content ([1]; 35 mg/kg orally twice daily): −36%
- NAFLD Activity Score (NAS) after treatment ([1]; 35 mg/kg orally twice daily, from 6.6): 4.5
- reduction of NAFLD Activity Score (NAS) ([1]; 75 mg/kg orally twice daily, from 6.7, p<0.01): −44%
- change of liver weight compared to ctrl group ([1]; 75 mg/kg orally twice daily): −33%
- decrease in hepatic stellate cell activation (aSMA positive staining) ([1]; 75 mg/kg orally twice daily): −39%
- decrease in plasma free fatty acid level ([1]; 75 mg/kg orally twice daily): −38%
- increase of PGCl-α protein expression in AT ([1]; 75 mg/kg orally twice daily): +409%
- reduction of fat pad mass ([1]; 75 mg/kg orally twice daily): −37%
- reduction of liver TG content ([1]; 75 mg/kg orally twice daily): −42%
- decrease of MCP-1 gene expression in AT ([1]; 75 mg/kg orally twice daily, p<0.05): −55%
- NAFLD Activity Score (NAS) after treatment ([1]; 75 mg/kg orally twice daily, from 6.7): 3.8
- hormone-sensitive lipase P-HSLser563 ([1]; 35 mg/kg orally twice daily): −67%
- hormone-sensitive lipase P-HSLser565 ([1]; 35 mg/kg orally twice daily): +416%
- hormone-sensitive lipase P-HSLser563 ([1]; 75 mg/kg orally twice daily): −52%
- hormone-sensitive lipase P-HSLser565 ([1]; 75 mg/kg orally twice daily): +425%
- down-regulation of fibrotic gene expression (type I collagen) ([1]; 35 mg/kg orally twice daily): −65%
- down-regulation of fibrotic gene expression (type I collagen) ([1]; 75 mg/kg orally twice daily): −68%
- AMPK activation in visceral AT (P-AMPK/AMPK) ([2]; 35 mg/kg orally twice daily, ns): +130%
- increase of AMPK activity in the liver (P-AMPK/AMPK) ([2]; 35 mg/kg orally twice daily): +128%
- AMPK activation in visceral AT (P-AMPK/AMPK) ([2]; 75 mg/kg orally twice daily, p<0.01): +152%
- increase of AMPK activity in the liver (P-AMPK/AMPK) ([2]; 75 mg/kg orally twice daily): +143%
- decrease of plasma FFA ([3]; 25 mg/kg twice a day oral, NS): −14%
- decrease of plasma triglyceride ([3]; 25 mg/kg twice a day oral, NS): −19%
- increase in HDL cholesterol ([3]; 25 mg/kg twice a day oral, NS): +12%
- decrease of plasma triglyceride [3, 6]: −40%
- increase in HDL cholesterol [3, 6]: +31%
- decrease of plasma FFA ([3]; 50 mg/kg twice a day oral, p<0.05): −35%
- decrease of plasma FFA ([3]; 100 mg/kg twice a day oral, NS): −21%
- decrease of plasma triglyceride [3, 7]: −43%
- increase in HDL cholesterol [3, 7]: +32%
- decrease of body weight compared to day 1 ([4]; 25 mg/kg twice a day oral): −17%
- decrease of body weight compared to day 1 ([4]; 50 mg/kg twice a day oral): −24%
- reduction of diastolic arterial pressure (DAP) compared to vehicle-treated SHR [5]: −17 mmHg
- reduction of mean arterial pressure (MAP) compared to vehicle-treated SHR [5]: −18 mmHg
- reduction of systolic arterial pressure (SAP) compared to vehicle-treated SHR [5]: −19 mmHg
